In PubChem BioAssay AID248 (DTP/NCI, 2004):
Where “and” joins values, the source holds several entries; their conditions need not be identical. Equal entries are not always repeated. Toxic doses and inconclusive results are not listed. Cut-off read from the data, not from the text of the source: active = T/C of 150% or more; inactive = T/C below 125%.

Test system: L1210 leukemia ip in BDF1 mice, survival T/C
Assay: NCI In Vivo Anticancer Drug Screen. Data for tumor model L1210 Leukemia (intraperitoneal) in B6D2F1 (BDF1) mice
Details: endpoint: mean survival time, higher = longer survival
In short: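 Ratio derived from survival: compound-dosed mice over vehicle-dosed mice, all bearing a transplantable tumor.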

[1] = dose: 100.0 mg/kg/injection, schedule: Q01DX009 (ip), vehicle: Klucel (hydroxypropylcellulose) (HPC)
[2] = dose: 100.0 mg/kg/injection, schedule: Q01DX009 (ip), vehicle: saline with Tween-80
[3] = dose: 200.0 mg/kg/injection, schedule: Q01DX009 (ip), vehicle: Klucel (hydroxypropylcellulose) (HPC)
[4] = dose: 200.0 mg/kg/injection, schedule: Q01DX009 (ip), vehicle: saline with Tween-80
[5] = dose: 400.0 mg/kg/injection, schedule: Q01DX009 (ip), vehicle: saline with Tween-80
[6] = dose: 400.0 mg/kg/injection, schedule: Q01DX009 (ip), vehicle: Klucel (hydroxypropylcellulose) (HPC)
[7] = dose: 200.0 mg/kg/injection, schedule: Q04DX003 (ip), vehicle: Klucel (hydroxypropylcellulose) (HPC)
[8] = dose: 100.0 mg/kg/injection, schedule: Q04DX002 (ip), vehicle: saline
[9] = dose: 200.0 mg/kg/injection, schedule: Q04DX002 (ip), vehicle: saline
[10] = dose: 400.0 mg/kg/injection, schedule: Q04DX002 (ip), vehicle: saline
[11] = dose: 100.0 mg/kg/injection, schedule: Q04DX003 (ip), vehicle: other
[12] = dose: 200.0 mg/kg/injection, schedule: Q04DX003 (ip), vehicle: other
[13] = dose: 400.0 mg/kg/injection, schedule: Q04DX003 (ip), vehicle: other
[14] = dose: 100.0 mg/kg/injection, schedule: Q04DX003 (ip), vehicle: Klucel (hydroxypropylcellulose) (HPC)

Measured: T/C

CS(=O)(=O)c1nnc(-c2ccccc2)s1
inactive: dose: 50.0 mg/kg/injection, schedule: Q01DX009 (ip), vehicle: saline with Tween-80 93 % of control | [1] 97 % of control | [2] 96 % of control and 90 % of control | [3] 94 % of control | [4] 93 % of control and 90 % of control

COc1ccc(OCC(C)=O)cc1
inactive: [2] 97 % of control | [4] 100 % of control | [5] 100 % of control

N#CC(C#N)=CN1CCCC1
inactive: dose: 5.0 mg/kg/injection, schedule: Q01DX009 (ip), vehicle: saline with Tween-80 89 % of control | dose: 10.0 mg/kg/injection, schedule: Q01DX009 (ip), vehicle: saline with Tween-80 91 % of control | dose: 20.0 mg/kg/injection, schedule: Q01DX009 (ip), vehicle: saline with Tween-80 93 % of control

CCc1cccc(CC)c1N=Cc1ccccc1
inactive: [1] 97 % of control | [3] 105 % of control | [6] 97 % of control

Nc1cc(Cl)nc(Cl)n1
inactive: dose: 29.0 mg/kg/injection, schedule: Q01DX Z (ip), vehicle: methylcellulose (MC) 89 % of control | dose: 45.0 mg/kg/injection, schedule: Q01DX Z (ip), vehicle: methylcellulose (MC) 100 % of control | dose: 67.0 mg/kg/injection, schedule: Q01DX Z (ip), vehicle: methylcellulose (MC) 96 % of control | dose: 100.0 mg/kg/injection, schedule: Q01DX Z (ip), vehicle: methylcellulose (MC) 92 % of control

O=C(Nc1scc2c1sc1ccccc12)c1ccccc1
inactive: dose: 100.0 mg/kg/injection, schedule: Q01DX001 (ip), vehicle: Klucel (hydroxypropylcellulose) (HPC) 93 % of control | dose: 200.0 mg/kg/injection, schedule: Q01DX001 (ip), vehicle: Klucel (hydroxypropylcellulose) (HPC) 93 % of control | dose: 400.0 mg/kg/injection, schedule: Q01DX001 (ip), vehicle: Klucel (hydroxypropylcellulose) (HPC) 107 % of control

NC(=O)c1ccc(O)cc1
inactive: dose: 100.0 mg/kg/injection, schedule: Q01DX001 (ip), vehicle: carboxymethylcellulose (CMC) 92 % of control | dose: 200.0 mg/kg/injection, schedule: Q01DX001 (ip), vehicle: carboxymethylcellulose (CMC) 92 % of control | dose: 400.0 mg/kg/injection, schedule: Q01DX001 (ip), vehicle: carboxymethylcellulose (CMC) 89 % of control

Cc1ccc2c(c1)CN(Cc1ccccc1)CO2
inactive: dose: 75.0 mg/kg/injection, schedule: Q01DX009 (ip), vehicle: saline 89 % of control | dose: 150.0 mg/kg/injection, schedule: Q01DX009 (ip), vehicle: saline 94 % of control | [7] 103 % of control | dose: 300.0 mg/kg/injection, schedule: Q01DX009 (ip), vehicle: saline 102 % of control | dose: 400.0 mg/kg/injection, schedule: Q04DX003 (ip), vehicle: Klucel (hydroxypropylcellulose) (HPC) 97 % of control

COP(=O)(OC)C(O)C(Cl)Cl (configuration not stated)
inactive: [8] 115 % of control | [9] 104 % of control | [10] 104 % of control

O=C(Nc1cccc(C(F)(F)F)c1)N(Cc1ccccc1)Cc1ccccc1
inactive: dose: 100.0 mg/kg/injection, schedule: Q01DX009 (ip), vehicle: gum acacia 108 % of control | dose: 200.0 mg/kg/injection, schedule: Q01DX009 (ip), vehicle: gum acacia 106 % of control | dose: 400.0 mg/kg/injection, schedule: Q01DX009 (ip), vehicle: gum acacia 94 % of control

CC(=O)N(CC(=O)O)Cc1ccccc1
inactive: dose: 100.0 mg/kg/injection, schedule: Q01DX009 (ip), vehicle: other 100 % of control | [11] 95 % of control | dose: 200.0 mg/kg/injection, schedule: Q01DX009 (ip), vehicle: other 105 % of control | [12] 101 % of control | dose: 400.0 mg/kg/injection, schedule: Q01DX009 (ip), vehicle: other 105 % of control | [13] 106 % of control

O=C(CCCCC(=O)c1ccc(O)cc1O)c1ccc(O)cc1O
inactive: dose: 100.0 mg/kg/injection, schedule: Q01DX001 (ip), vehicle: other 97 % of control | [11] 103 % of control | dose: 200.0 mg/kg/injection, schedule: Q01DX001 (ip), vehicle: other 95 % of control | [12] 100 % of control | dose: 400.0 mg/kg/injection, schedule: Q01DX001 (ip), vehicle: other 97 % of control | [13] 106 % of control

CCN1/C(=C/C(C)=C/c2[se]c3ccccc3[n+]2CC)[Se]c2ccc(OC)cc21
inactive: dose: 5.0 mg/kg/injection, schedule: Q01DX001 (ip), vehicle: saline 105 % of control | dose: 10.0 mg/kg/injection, schedule: Q01DX001 (ip), vehicle: saline 100 % of control | dose: 20.0 mg/kg/injection, schedule: Q01DX001 (ip), vehicle: saline 97 % of control | dose: 40.0 mg/kg/injection, schedule: Q01DX001 (ip), vehicle: saline 100 % of control

C=C(C)COc1c(C)c(C)c(OCC(C)C)c(C)c1C
inactive: dose: 50.0 mg/kg/injection, schedule: Q04DX003 (ip), vehicle: Klucel (hydroxypropylcellulose) (HPC) 96 % of control | [14] 93 % of control | [7] 93 % of control

NS(=O)(=O)c1ccc(NC(=O)Nc2cccc(C(F)(F)F)c2)cc1
inactive: [1] 97 % of control | dose: 100.0 mg/kg/injection, schedule: Q04DX002 (ip), vehicle: Klucel (hydroxypropylcellulose) (HPC) 94 % of control | [3] 91 % of control | dose: 200.0 mg/kg/injection, schedule: Q04DX002 (ip), vehicle: Klucel (hydroxypropylcellulose) (HPC) 91 % of control | [6] 94 % of control | dose: 400.0 mg/kg/injection, schedule: Q04DX002 (ip), vehicle: Klucel (hydroxypropylcellulose) (HPC) 97 % of control

N#CSc1ccc(NN)cc1
inactive: dose: 3.0 mg/kg/injection, schedule: Q01DX009 (ip), vehicle: saline with Tween-80 97 % of control | dose: 6.0 mg/kg/injection, schedule: Q01DX009 (ip), vehicle: saline with Tween-80 90 % of control | dose: 6.0 mg/kg/injection, schedule: Q04DX004 (ip), vehicle: saline with Tween-80 100 % of control | dose: 12.0 mg/kg/injection, schedule: Q01DX009 (ip), vehicle: saline with Tween-80 95 % of control | dose: 12.0 mg/kg/injection, schedule: Q04DX004 (ip), vehicle: saline with Tween-80 98 % of control | dose: 25.0 mg/kg/injection, schedule: Q01DX009 (ip), vehicle: saline with Tween-80 96 % of control | dose: 25.0 mg/kg/injection, schedule: Q04DX003 (ip), vehicle: saline with Tween-80 93 % of control | dose: 25.0 mg/kg/injection, schedule: Q04DX004 (ip), vehicle: saline with Tween-80 102 % of control

O=C(CCN1CC1)OC1CCCC1
inactive: dose: 0.25 mg/kg/injection, schedule: Q01DX009 (ip), vehicle: Klucel (hydroxypropylcellulose) (HPC) 91 % of control | dose: 0.5 mg/kg/injection, schedule: Q01DX009 (ip), vehicle: Klucel (hydroxypropylcellulose) (HPC) 97 % of control | dose: 1.0 mg/kg/injection, schedule: Q01DX009 (ip), vehicle: Klucel (hydroxypropylcellulose) (HPC) 103 % of control | dose: 2.5 mg/kg/injection, schedule: Q01DX009 (ip), vehicle: Klucel (hydroxypropylcellulose) (HPC) 100 % of control | dose: 20.0 mg/kg/injection, schedule: Q04DX003 (ip), vehicle: Klucel (hydroxypropylcellulose) (HPC) 98 % of control | dose: 40.0 mg/kg/injection, schedule: Q04DX003 (ip), vehicle: Klucel (hydroxypropylcellulose) (HPC) 97 % of control | dose: 80.0 mg/kg/injection, schedule: Q04DX003 (ip), vehicle: Klucel (hydroxypropylcellulose) (HPC) 97 % of control | [14] 102 % of control

CC1CCN(C(=O)Nc2cccc(C(F)(F)F)c2)CC1
inactive: [2] 94 % of control | [4] 97 % of control | [5] 91 % of control

COC1/C=C/OC2(C)Oc3c(C)c(O)c4c(O)c(c(/C=N/N5C(C)CN(Cc6ccccc6)CC5C)c(O)c4c3C2=O)NC(=O)C(C)=C/C=C/C(C)C(O)C(C)C(O)C(C)C(OC(C)=O)C1C (configuration not stated)
inactive: dose: 50.0 mg/kg/injection, schedule: Q01DX009 (ip), vehicle: Klucel (hydroxypropylcellulose) (HPC) 91 % of control | [1] 93 % of control

S=C(Nc1ccc(Cl)c(Cl)c1)SCc1ccc(Cl)c(Cl)c1
inactive: dose: 15.0 mg/kg/injection, schedule: Q04DX003 (ip), vehicle: saline 97 % of control | dose: 30.0 mg/kg/injection, schedule: Q04DX003 (ip), vehicle: saline 101 % of control | dose: 60.0 mg/kg/injection, schedule: Q04DX003 (ip), vehicle: saline 101 % of control | [8] 88 % of control | [9] 112 % of control | [10] 88 % of control
